Source: US20160235824A1, “Compositions and Methods for Increasing the Half-Life of Factor XA” (THE CHILDREN'S HOSPITAL OF PHILADELPHIA, priority 2013, published 2016)
“Also recorded” adds a separate entry of the source.

What was measured:
[1] = tested on: citrated human blood; assay: rotational thromboelastography (ROTEM) in whole blood; conditions: 250 nM apixaban alone vs untreated (PBS) control blood
Method: FIG. 2 provides a graph of rotational thromboelastograms performed using freshly collected, citrated human blood treated with 25 μg/mL corn trypsin inhibitor (to minimize variation in samples). […] Phosphate buffered saline (PBS) was added to one sample instead of apixaban […].
A coagulation initiator is added, and as the blood clots, rotation of the pin is restricted, which is detected optically by the instrument.

[2] = cited from earlier work
[3] = tail-clip hemostasis experiments in mice; type: in vivo
[4] = biological target: FXa-antithrombin III (FXa-ATIII) complex (Homo sapiens, UniProt P00742); assay: FXa-antithrombin III complex formation in FX deficient plasma (ELISA); type: biochemical; conditions: 100 nM or 1 μM rivaroxaban
Chain of FXa-antithrombin III (FXa-ATIII) complex (P00742 235-488 limits assumed): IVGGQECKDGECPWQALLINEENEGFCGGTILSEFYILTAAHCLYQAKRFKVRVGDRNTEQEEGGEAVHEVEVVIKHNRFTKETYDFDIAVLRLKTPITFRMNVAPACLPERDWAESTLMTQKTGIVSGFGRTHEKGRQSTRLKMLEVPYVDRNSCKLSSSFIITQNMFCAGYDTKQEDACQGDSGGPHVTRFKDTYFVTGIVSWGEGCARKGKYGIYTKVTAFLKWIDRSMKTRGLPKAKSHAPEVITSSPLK
Chain of FXa-antithrombin III (FXa-ATIII) complex (P00742 41-179 limits assumed): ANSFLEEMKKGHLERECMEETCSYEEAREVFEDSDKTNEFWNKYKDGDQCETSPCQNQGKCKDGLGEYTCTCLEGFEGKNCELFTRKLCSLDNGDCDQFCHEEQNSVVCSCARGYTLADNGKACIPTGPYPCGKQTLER

[5] = tested on: normal human platelet poor plasma (PPP); assay: thrombin generation assay (TGA) in platelet poor plasma; type: biochemical

effect on FXa-ATIII complex formation [4] | Structure (SMILES) | effect on clot time [1] | effect on clot time ([1]; listed as Apixaban) | plasma protein binding [2] | blood loss ([3]; 50 mg/kg rivaroxaban alone) | effect on blood loss ([3]; rivaroxaban alone) | peak thrombin generation ([5]; 500 nM rivaroxaban alone) | effect on thrombin generation ([5]; 2.5 μM rivaroxaban alone) | effect on thrombin generation ([5]; inhibitor alone added to normal human plasma (PPP))
– | COc1ccc(-n2nc(C(N)=O)c3c2C(=O)N(c2ccc(N4CCCCC4=O)cc2)CC3)cc1 [apixaban] | prolonged the clot time | prolonged the clot time substantially | heavily protein-bound | – | – | – | – | –
dose-dependently inhibited | O=C(NC[C@H]1CN(c2ccc(N3CCOCC3=O)cc2)C(=O)O1)c1ccc(Cl)s1 [rivaroxaban] | – | – | heavily protein-bound | 217 % of normal | dose-dependently increased blood loss | ~10 % of normal | completely abrogated thrombin generation | profoundly decrease thrombin generation; also recorded: dose-dependently inhibited thrombin generation
